Source: paper PMC12323131, “CSRP2 promotes the glioblastoma mesenchymal phenotype via p130Cas-mediated NF-κB and MAPK pathways” (Journal of Experimental & Clinical Cancer Research : CR, 2025)

Biological target: T1, CSRP2 recombinant protein (Homo sapiens, UniProt Q16527)
T1 construct: labelled with RED-NHS dye
T1 sequence (Q16527 1-193): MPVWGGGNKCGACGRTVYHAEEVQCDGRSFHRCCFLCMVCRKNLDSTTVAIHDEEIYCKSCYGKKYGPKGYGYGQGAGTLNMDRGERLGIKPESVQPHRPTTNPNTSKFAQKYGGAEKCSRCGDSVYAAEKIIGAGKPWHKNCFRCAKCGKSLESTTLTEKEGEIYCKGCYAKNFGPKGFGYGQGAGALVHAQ
Test: microscale thermophoresis
Assay type: binding

O=C1c2c(O)ccc(O)c2C(=O)c2c(NCCNCCO)ccc(NCCNCCO)c21 [Mitoxantrone]
Kd: 370 nM
